Measurements reported in ChEMBL document CHEMBL4840353, “Investigation on the solid-phase synthesis of silybin prodrugs and their timed-release” (Bioorg Med Chem, 2021).
In brackets after ≈: the same amount, converted by molar mass.

Assays:
[1] = Aqueous solubility of the compound; assay type: physicochemical; conditions: buffer
[2] = Antioxidant activity assessed as DPPH radical scavenging activity measured for 60 mins by spectrophotometric analysis; assay type: functional
[3] = Stability in simulated intestinal fluid at pH 6.8 assessed as half life at 1 mM by HPLC analysis; assay type: ADME
[4] = Stability in simulated gastric fluid at pH 1.1 assessed as drug degradation at 1 mM measured after 24 hrs by HPLC analysis; assay type: ADME; conditions: read-out: Drug degradation
[5] = Stability in alkaline phosphatase buffer at pH 7.4 assessed as drug degradation at 1 mM measured after 48 hrs by HPLC analysis; assay type: ADME; conditions: read-out: Drug degradation
[6] = Prodrug conversion assessed as RNase (unknown origin) -mediated drug release by measuring half life in imidazole buffer at 1 mM by UV/Vis detector based HPLC analysis; assay type: ADME; conditions: human, 1000 µM
[7] = Prodrug conversion assessed as RNase (unknown origin)-mediated drug release by measuring half life in simulated intestinal fluid at 1 mM by UV/Vis detector based HPLC analysis; assay type: ADME; conditions: human, simulated gi fluid, 1000 µM
[8] = tested on: SH-SY5Y; test: Cytotoxicity against human differentiated SH-SY5Y cells assessed as reduction in cell viability at 2 to 50 uM measured after 48 hrs by MTT assay; assay type: cell-based; conditions: dose 2-50 µM

| solubility [1] | EC50 [2] [µM] | half-life at 1000 µM [3] [h] | degraded at 24 h, 1000 µM [4] [%] | degraded at 48 h, 1000 µM [5] [%] | t1/2 [6] [h] | t1/2 [7] [h] | solubility ([1]; read-out: solubility) [µM] | SMILES | Activity [8] |
| --- | --- | --- | --- | --- | --- | --- | --- | --- | --- |
| Soluble | 620 | > 24 | < 5 | < 2 | > 48 | > 48 |  | COc1cc(C2Oc3cc([C@H]4Oc5cc(O)cc(O)c5C(=O)[C@@H]4O)ccc3OC2COP(=O)(O)O[C@H]2[C@@H](O)[C@H](n3cnc4c(N)ncnc43)O[C@@H]2CO)ccc1O (stereo not given in full) | Non-Toxic |
| Soluble | 570 | > 24 | 27 | < 2 | 1.45 | 13 |  | COc1cc([C@H]2Oc3cc([C@H]4Oc5cc(O)cc(O)c5C(=O)[C@@H]4O)ccc3O[C@@H]2COP(=O)(O)O[C@H]2[C@@H](O)[C@H](n3ccc(=O)[nH]c3=O)O[C@@H]2CO)ccc1O | Non-Toxic |
| Soluble | 580 | > 24 | < 5 | < 2 | > 48 | > 48 |  | COc1cc([C@@H]2Oc3cc([C@H]4Oc5cc(O)cc(O)c5C(=O)[C@@H]4O)ccc3O[C@H]2COP(=O)(O)O[C@H]2[C@@H](O)[C@H](n3cnc4c(N)ncnc43)O[C@@H]2CO)ccc1O | Non-Toxic |
| Soluble | 530 | > 24 | 27 | < 2 | 0.833 | 11 |  | COc1cc([C@@H]2Oc3cc([C@H]4Oc5cc(O)cc(O)c5C(=O)[C@@H]4O)ccc3O[C@H]2COP(=O)(O)O[C@H]2[C@@H](O)[C@H](n3ccc(=O)[nH]c3=O)O[C@@H]2CO)ccc1O | Non-Toxic |
| Soluble | 630 | > 24 | < 5 | < 2 | > 48 | > 48 |  | COc1cc([C@H]2Oc3cc([C@H]4Oc5cc(O)cc(O)c5C(=O)[C@@H]4O)ccc3O[C@@H]2COP(=O)(O)O[C@H]2[C@@H](O)[C@H](n3cnc4c(N)ncnc43)O[C@@H]2CO)ccc1O | Non-Toxic |
| Soluble | 490 | > 24 | 27 | < 2 | 1.67 | 20 |  | COc1cc(C2Oc3cc([C@H]4Oc5cc(O)cc(O)c5C(=O)[C@@H]4O)ccc3OC2COP(=O)(O)O[C@H]2[C@@H](O)[C@H](n3ccc(=O)[nH]c3=O)O[C@@H]2CO)ccc1O (stereo not given in full) | Non-Toxic |
|  | 620 |  |  |  |  |  | 1 (≈ 0.482 µg/mL) | COc1cc(C2Oc3cc([C@H]4Oc5cc(O)cc(O)c5C(=O)[C@@H]4O)ccc3OC2CO)ccc1O (stereo not given in full) [SILIBININ] |  |
|  | 360 |  |  |  |  |  |  | COc1cc([C@H]2Oc3cc([C@H]4Oc5cc(O)cc(O)c5C(=O)[C@@H]4O)ccc3O[C@@H]2CO)ccc1O [SILYBIN A] | Non-Toxic |
|  | 580 |  |  |  |  |  |  | COc1cc([C@@H]2Oc3cc([C@H]4Oc5cc(O)cc(O)c5C(=O)[C@@H]4O)ccc3O[C@H]2CO)ccc1O [SILYBIN B] | Non-Toxic |
|  | 28 |  |  |  |  |  |  | Cc1c(C)c2c(c(C)c1O)CCC(C)(C(=O)O)O2 (stereo not given) [TROLOX] |  |
